Measured values from patent US5892063A (Hauser, Inc., priority 1997, dated 1999).

How the values were obtained:
[1] = test system: cell line panel (leukemia, non-small-cell lung cancer, colon, CNS, melanoma, ovarian, renal, prostate and breast cancers); experiment: SRB growth screen, whole cell line panel; assay type: cell-based
Protocol: The screening assay is performed on 96-well microtitre plates. […] Duplicate wells are prepared for all concentrations; "time-zero" and "nodrug" controls are also provided for each test. […] One hundred microliters of SRB solution (0.4% w/v in 1% acetic acid) is added to each microtitre well and incubated for 10 minutes at room temperature.
The response parameters GI50 and LC50 are interpolated values representing the concentrations at which the percentage growth (PG) is +50 and -50 respectively:
GI50 is the concentration for which the PG=+50.
TGI is the concentration for which PG=0.
LC50 is the concentration for which the PG=-50. […] This is interpreted as cytotoxicity.
The data represented in Table I is graphically represented in FIGS. 1a and 1b through FIGS. 9a and 9b. […] The following is an example of how the information in Table I and in the Figures is interpreted.

[2] = test system: SNB-75; experiment: SRB growth screen, CNS cancer SNB-75; conditions: Homo sapiens, SNB-75, 48 h
[3] = test system: HS 578T; experiment: SRB growth screen, breast cancer HS 578T; conditions: Homo sapiens, 48 h
[4] = test system: microtubule; conditions: cited from earlier work
[5] = test system: tumor models; conditions: cited from earlier work
[6] = read-out: Log10 GI50 (converted)
[7] = read-out: Log10 LC50 (converted)

| Compound | potency as compared to paclitaxel ([1]; on the whole, all cell lines) | Log10 TGI, Range ([1]; range over cell lines (log10 units)) | GI50 [2, 6] [nM] | CC50 [2, 7] [nM] | GI50 [3, 6] [nM] | CC50 [3, 7] [nM] | IC (TGI) ([3]; read-out: Log10 TGI) [nM] | effect on microtubules [4] | activity in model tumor systems [5] |
| --- | --- | --- | --- | --- | --- | --- | --- | --- | --- |
| CC(=O)O[C@H]1C(=O)[C@@]2(C)[C@H]([C@H](OC(=O)c3ccccc3)[C@]3(O)C[C@H](OC(=O)[C@H](O)[C@@H](NC(=O)C4(C)OC4C)c4ccccc4)C(C)=C1C3(C)C)[C@]1(OC(C)=O)CO[C@@H]1C[C@@H]2O (stereo partly drawn) [Ceph-epoxide, cephalomannine epoxide] | equivalent to and in many instances greater than that of paclitaxel's | 4.00 | < 10 | > 100000 | < 10 | > 100000 | 55 |  |  |
| CC(=O)O[C@H]1C(=O)[C@@]2(C)[C@H]([C@H](OC(=O)c3ccccc3)[C@]3(O)C[C@H](OC(=O)[C@H](O)[C@@H](NC(=O)c4ccccc4)c4ccccc4)C(C)=C1C3(C)C)[C@]1(OC(C)=O)CO[C@@H]1C[C@@H]2O [Paclitaxel, paclitaxel, reference compound] |  |  |  |  |  |  |  | stabilizes microtubules and inhibits depolymerization back to tubulin | excellent activity |
